In US20230143751A1, “Aromatic Compound And Use Thereof In Preparing Antineoplastic Drugs” (Shanghai Zheye Biotechnology Co. Ltd., priority 2020, published 2023):
Like-named read-outs stand apart in the source and are kept apart here. Values belong to the compound of their own block, whether it stands above or below them.

Assays:
Type in all cases: cell-based
[1] = test system: NCI-H358 cells; experiment: Cell proliferation activity of NCI-H358 by CellTiter-Glo reagent; details: for IC50: read-out: IC50 value of cell proliferation inhibitory activity of NCI-H358
Protocol: NCI-H358 cells in exponential growth phase were digested with trypsin-EDTA, plated in a 96-well plate with 2000-3000 cells per well, and incubated overnight at 37° C. with 5% CO2. […] After the incubation, CellTiter-Glo test reagent with an equal volume was added into each well and the obtained 96-well plate was incubated after shaking. The chemiluminescence values were determined by microplate reader, and the IC50 values of the test compounds inhibiting the proliferation of NCI-H358 cells were fitted and calculated by GraphPad Prism software.
The test method of inhibitory activity was the same as that in Test 3 in “Biological Tests” part.

[2] = test system: NCI-H358; experiment: Cell proliferation inhibitory activity on NCI-H358, 3D model test (agarose colony formation); details: for anti-cell proliferation activity against KRAS G12C mutant type cells NCI-H358 (in words): 3D model test; for IC50: Homo sapiens, NCI-H358, 3D agarose colony formation, NBT staining
Protocol: 100 μl of agarose gel with a high concentration was spread in a 96-well plate as the bottom agarose gel layer. Agarose with a low concentration and growth medium containing cells were mixed and then spread on the bottom agar layer, cooled and solidified, then incubated overnight at 37° C. Mother solutions were prepared from the test compounds by using DMSO, and then subjected to gradient elution with RPMI 1640 growth medium. The solutions of test compounds with different concentrations after gradient elution were added to the 96-well plate comprising an upper layer of agar gel-cells. Solvent control well was set up and the plate was incubated in a CO2 incubator. The drug-containing medium was changed during the incubation period and the cell growth situation was observed. After the incubation, the cells were stained with NBT and the number of cell colony formation was counted, and the IC50 values of the compounds inhibiting cell proliferation were derived.

[3] = test system: MIA PaCa-2 cells; experiment: Cell proliferation activity of MIA PaCa-2 by CellTiter-Glo reagent; details: 72 h, CellTiter-Glo; for IC50: Homo sapiens, MIA PaCa-2, read-out: IC50 value of cell proliferation inhibitory activity of the compound on MIA PaCa-2
Protocol: MIA PaCa-2 cells in exponential growth phase were digested with trypsin-EDTA, plated in a 96-well plate with 2000-3000 cells per well, and incubated overnight at 37° C. with 5% CO2. Mother solutions were prepared from the test compounds by using DMSO, subjected to gradient elution with DMEM growth medium, and then added into the 96-well plate and incubated in an incubator for 72 h at 37° C. with 5% CO2. After the incubation, CellTiter-Glo test reagent with an equal volume was added into each well and the obtained 96-well plate was incubated after shaking. The chemiluminescence values were determined by microplate reader, and the IC50 values of the test compounds inhibiting the proliferation of MIA PaCa-2 cells were fitted and calculated by GraphPad Prism software.
The test method of inhibitory activity was the same as that in Test 2 in “Biological Tests” part.

[4] = Homo sapiens, NCI-H358, 72 h, 72 h, CellTiter-Glo, test 3
[5] = Homo sapiens, NCI-H358, test 4, method of test 3

SMILES: [2H]C([2H])=Cc1ccccc1-c1nc2c(cc1Cl)c(N1[C@@H](C)CN(C(=O)C=C)C[C@@H]1C)nc(=O)n2-c1c(CC)ccnc1C(C)C [Compound 2-3]
anti-cell proliferation activity against KRAS G12C mutant type cells NCI-H358 (in words) ([1]; 72 h, CellTiter-Glo): significant anti-cell proliferation activity

IC50 [1, 4]: < 50 nM
SMILES: [2H]/C=C(\[2H])C(=O)N1CCN(c2nc(=O)n(-c3c(CC)ccnc3C(C)C)c3nc(-c4c(F)cccc4C=C)c(Cl)cc23)[C@@H](C)C1 [Compound 2-8]
anti-cell proliferation activity against KRAS G12C mutant type cells NCI-H358 (in words) ([1]; 72 h, CellTiter-Glo): significant anti-cell proliferation activity

IC50 [1, 5]: < 50 nM
SMILES: C=CC(=[18O])N1CCN(c2nc(=O)n(-c3c(C)ccnc3C(C)C)c3nc(-c4ccccc4C=C)c(Cl)cc23)[C@@H](C)C1 [Compound 3-1MIS]
anti-cell proliferation activity against KRAS G12C mutant type cells NCI-H358 (in words) ([1]; 72 h, CellTiter-Glo): significant anti-cell proliferation activity

IC50 [2]: < 50 nM | IC50 [3]: < 50 nM
SMILES: C=CC(=O)N1CCN(c2nc(=O)n(-c3c(C)ccnc3C(C)C)c3nc(-c4ccccc4C=C)c(F)cc23)[C@@H](C)C1 [Compound 3-1]
anti-cell proliferation activity against KRAS G12C mutant type cells NCI-H358 (in words) [2]: significant anti-cell proliferation activity | anti-cell proliferation activity against KRAS G12C mutant type cells MIA PaCa-2 (in words) [3]: significant anti-cell proliferation activity

IC50 [1, 5]: < 50 nM
SMILES: C=CC(=[18O])N1C[C@H](C)N(c2nc(=O)n(-c3c(C)ccnc3C(C)C)c3nc(-c4ccccc4C=C)c(Cl)cc23)[C@@H](C)C1 [Compound 3-3MIS]
anti-cell proliferation activity against KRAS G12C mutant type cells NCI-H358 (in words) ([1]; 72 h, CellTiter-Glo): significant anti-cell proliferation activity

IC50 ([1]; 72 h, CellTiter-Glo, test 3): < 50 nM
SMILES: C=CC(=O)N1CCN(c2nc(=O)n(-c3c(CC)ccnc3C(C)C)c3nc(-c4ccccc4C=C)c(Cl)cc23)[C@@H](C)C1 [Compound 3-4MIS]

IC50 [1, 5]: < 50 nM
SMILES: C=CC(=[18O])N1CCN(c2nc(=O)n(-c3c(CC)ccnc3C(C)C)c3nc(-c4ccccc4C=C)c(Cl)cc23)[C@@H](C)C1 [Compound 3-4MIS]
anti-cell proliferation activity against KRAS G12C mutant type cells NCI-H358 (in words) ([1]; 72 h, CellTiter-Glo): significant anti-cell proliferation activity

IC50 [1, 5]: < 50 nM
SMILES: C=CC(=[18O])N1CCN(c2nc(=O)n(-c3c(C)ccnc3C(C)C)c3nc(-c4c(F)cccc4C=C)c(Cl)cc23)[C@@H](C)C1 [Compound 3-5MIS]
anti-cell proliferation activity against KRAS G12C mutant type cells NCI-H358 (in words) ([1]; 72 h, CellTiter-Glo): significant anti-cell proliferation activity

IC50 [2]: < 50 nM | IC50 [3]: < 50 nM
SMILES: C=CC(=O)N1CCN(c2nc(=O)n(-c3c(C)ccnc3C(C)C)c3nc(-c4c(F)cccc4C=C)c(F)cc23)[C@@H](C)C1 [Compound 3-5]
anti-cell proliferation activity against KRAS G12C mutant type cells NCI-H358 (in words) [2]: significant anti-cell proliferation activity | anti-cell proliferation activity against KRAS G12C mutant type cells MIA PaCa-2 (in words) [3]: significant anti-cell proliferation activity

IC50 [1, 5]: < 50 nM
SMILES: C=CC(=[18O])N1C[C@H](C)N(c2nc(=O)n(-c3c(C)ccnc3C(C)C)c3nc(-c4c(F)cccc4C=C)c(Cl)cc23)[C@@H](C)C1 [Compound 3-7MIS]
anti-cell proliferation activity against KRAS G12C mutant type cells NCI-H358 (in words) ([1]; 72 h, CellTiter-Glo): significant anti-cell proliferation activity

IC50 [1, 5]: < 50 nM
SMILES: C=CC(=[18O])N1CCN(c2nc(=O)n(-c3c(CC)ccnc3C(C)C)c3nc(-c4c(F)cccc4C=C)c(Cl)cc23)[C@@H](C)C1 [Compound 3-8MIS]
anti-cell proliferation activity against KRAS G12C mutant type cells NCI-H358 (in words) ([1]; 72 h, CellTiter-Glo): significant anti-cell proliferation activity

IC50 [3]: < 50 nM
SMILES: C=CC(=O)N1C[C@H](C)N(c2nc(=O)n(-c3c(C)ccnc3C(C)C)c3nc(-c4c(F)cccc4C=C)c(Cl)cc23)[C@@H](C)C1 [Compound 3-8]

IC50 [1, 5]: < 50 nM
SMILES: [2H]C([2H])=Cc1cccc(F)c1-c1nc2c(cc1Cl)c(N1CCN(C(=[18O])C=C)C[C@@H]1C)nc(=O)n2-c1c(C)ccnc1C(C)C [Compound 3-9MIS]
anti-cell proliferation activity against KRAS G12C mutant type cells NCI-H358 (in words) ([1]; 72 h, CellTiter-Glo): significant anti-cell proliferation activity

IC50 [1, 5]: < 50 nM
SMILES: [2H]C([2H])=Cc1cccc(F)c1-c1nc2c(cc1Cl)c(N1[C@@H](C)CN(C(=[18O])C=C)C[C@@H]1C)nc(=O)n2-c1c(C)ccnc1C(C)C [Compound 3-11MIS]
anti-cell proliferation activity against KRAS G12C mutant type cells NCI-H358 (in words) ([1]; 72 h, CellTiter-Glo): significant anti-cell proliferation activity

IC50 [1, 5]: < 50 nM
SMILES: [2H]C([2H])=Cc1cccc(F)c1-c1nc2c(cc1Cl)c(N1CCN(C(=[18O])C=C)C[C@@H]1C)nc(=O)n2-c1c(CC)ccnc1C(C)C [Compound 3-12MIS]
anti-cell proliferation activity against KRAS G12C mutant type cells NCI-H358 (in words) ([1]; 72 h, CellTiter-Glo): significant anti-cell proliferation activity

IC50 [1, 4]: < 50 nM
SMILES: [2H]C([2H])=Cc1ccccc1-c1nc2c(cc1Cl)c(N1CCN(C(=O)C=C)C[C@@H]1C)nc(=O)n2-c1c(C)ccnc1C(C)C [Compound 3-16M]
anti-cell proliferation activity against KRAS G12C mutant type cells NCI-H358 (in words) ([1]; 72 h, CellTiter-Glo): significant anti-cell proliferation activity | cell proliferation inhibitory activity on NCI-H358 compared with the corresponding compound with axial chiral S configuration (in words) ([1]; NCI-H358): significantly better

IC50 [2]: < 50 nM | IC50 [3]: < 50 nM
SMILES: [2H]C([2H])=Cc1cccc(F)c1-c1nc2c(cc1F)c(N1CCN(C(=O)C=C)C[C@@H]1C)nc(=O)n2-c1c(C)ccnc1C(C)C [Compound 3-19]
anti-cell proliferation activity against KRAS G12C mutant type cells NCI-H358 (in words) [2]: significant anti-cell proliferation activity | anti-cell proliferation activity against KRAS G12C mutant type cells MIA PaCa-2 (in words) [3]: significant anti-cell proliferation activity

IC50 [2]: < 50 nM | IC50 [3]: < 50 nM
SMILES: [2H]C([2H])=Cc1ccccc1-c1nc2c(cc1F)c(N1CCN(C(=O)C=C)C[C@@H]1C)nc(=O)n2-c1c(C)ccnc1C(C)C [Compound 3-23]

IC50 [2]: < 50 nM | IC50 [3]: < 50 nM
SMILES: [2H]C([2H])=Cc1ccccc1-c1nc2c(cc1Cl)c(N1CCN(C(=O)C=C)C[C@@H]1C)nc(=O)n2-c1c(C)ccnc1C(C)C [Compound 3-24]

IC50 [2]: < 50 nM
SMILES: [2H]C([2H])=Cc1cccc(F)c1-c1nc2c(cc1F)c(N1[C@@H](C)CN(C(=O)C(=C)F)C[C@@H]1C)nc(=O)n2-c1c(C)ccnc1C(C)C [Compound 3-25]

IC50 [2]: < 50 nM
SMILES: [2H]C([2H])=Cc1cccc(F)c1-c1nc2c(cc1F)c(N1CCN(C(=O)C(=C)F)C[C@@H]1C)nc(=O)n2-c1c(C)ccnc1C(C)C [Compound 3-27]

IC50 [1, 4]: < 50 nM
SMILES: [2H][C@]1(C)CN(C(=O)C=C)CCN1c1nc(=O)n(-c2c(C)ccnc2C(C)C)c2nc(-c3c(F)cccc3C=C)c(Cl)cc12 [Compound 3-49]
anti-cell proliferation activity against KRAS G12C mutant type cells NCI-H358 (in words) ([1]; 72 h, CellTiter-Glo): significant anti-cell proliferation activity

IC50 [1, 4]: < 50 nM
SMILES: [2H]/C=C(\[2H])C(=O)N1CCN(c2nc(=O)n(-c3c(C)ccnc3C(C)C)c3nc(-c4c(F)cccc4C=C)c(Cl)cc23)[C@@H](C)C1 [Compound 3-51]
anti-cell proliferation activity against KRAS G12C mutant type cells NCI-H358 (in words) ([1]; 72 h, CellTiter-Glo): significant anti-cell proliferation activity

IC50 [2]: < 50 nM | IC50 [3]: < 50 nM
SMILES: [2H]C([2H])=Cc1cccc(F)c1-c1nc2c(cc1F)c(N1CCN(C(=O)C=C)C[C@@H]1C)nc(=O)n2-c1c(C([2H])([2H])[2H])ccnc1C(C)C [Compound 4-3]

IC50 [2]: < 50 nM
SMILES: [2H]C([2H])=Cc1cccc(F)c1-c1nc2c(cc1F)c(N1[C@@H](C)CN(C(=O)C(=C)F)C[C@@H]1C)nc(=O)n2-c1c(C([2H])([2H])[2H])ccnc1C(C)C [Compound 4-9]

IC50 [2]: < 50 nM
SMILES: [2H]C([2H])=Cc1cccc(F)c1-c1nc2c(cc1F)c(N1CCN(C(=O)C(=C)F)C[C@@H]1C)nc(=O)n2-c1c(C([2H])([2H])[2H])ccnc1C(C)C [Compound 4-11]

IC50 [2]: < 50 nM
SMILES: [2H]C([2H])=Cc1ccccc1-c1nc2c(cc1F)c(N1CCN(C(=O)C(=C)F)C[C@@H]1C)nc(=O)n2-c1c(C([2H])([2H])[2H])ccnc1C(C)C [Compound 4-16]

IC50 [2]: < 50 nM | IC50 [3]: < 50 nM
SMILES: [2H]C([2H])([2H])c1ccnc(C(C)C)c1-n1c(=O)nc(N2CCN(C(=O)C=C)C[C@@H]2C)c2cc(F)c(-c3ccccc3C=C)nc21 [Compound 4-23]

IC50 [2]: < 50 nM | IC50 [3]: < 50 nM
SMILES: [2H]C([2H])=Cc1cccc(F)c1-c1nc2c(cc1F)c(N1CCN(C(=O)C=C)C[C@@H]1C)nc(=O)n2-c1c(C(C)C)ccnc1C(C)C [Compound 5-3]

IC50 [2]: < 50 nM
SMILES: [2H]C([2H])=Cc1cccc(F)c1-c1nc2c(cc1F)c(N1[C@@H](C)CN(C(=O)C(=C)F)C[C@@H]1C)nc(=O)n2-c1c(C(C)C)ccnc1C(C)C [Compound 5-9]

IC50 [2]: < 50 nM
SMILES: [2H]C([2H])=Cc1cccc(F)c1-c1nc2c(cc1F)c(N1CCN(C(=O)C(=C)F)C[C@@H]1C)nc(=O)n2-c1c(C(C)C)ccnc1C(C)C [Compound 5-11]

SMILES: C=CC(=O)N1CCN(c2nc(=O)n(-c3c(C)ccnc3C(C)C)c3nc(-c4c(F)cccc4C=C)c(Cl)cc23)[C@@H](C)C1 [Example 3-12P]
IC50 ([1]; 72 h, CellTiter-Glo, test 3): > 50 nM
